Experimental data taken from patent US6740680B1, “Pharmaceutical compositions to tetrac and methods of use thereof” (Becton Pharma, Inc., priority 1999, dated 2004).
Like-named read-outs stand apart in the source and are kept apart here.

What was measured:
[1] = system: hypothyroid rats; assay: Heart weight and heart/body weight in hypothyroid rats infused with Tetrac or T4; assay type: in vivo, rat; conditions: for Heart / Heart/BW (%): hypothyroid rats, mean ± SEM; for Heart: continuous minipump infusion
Protocol: (§1) Seventy-nine male SIVZ rats were purchased from the breeder (Institut für Labortierkunde des Universität Zürich, Zürich, Switzerland). They were rendered hypothyroid by a single injection of [^131I]Na (100 μCi/rat) and before and throughout the experiment 0.02% 2-mercapto-1-methylimidazol (MMI) was added to drinking water. In order to have an euthyroid control group of similar weight and identical age, 10 rats received only MMI in the drinking water and 2 weeks before implanting the minipumps, MMI was withdrawn. Osmotic minipumps (secretion rate 0.25 μl/hour, duration 14 days) were implanted intraperitoneally (i.p.) 2 months after the injection of [^131I]Na. The minipumps were filled with T4 or Tetrac dissolved in 0.05 N NaOH, 2% BSA and 100,000 cpm [^125I]T4 or [^125I]Tetrac as control of their secretion rates. The infusion lasted 13 days. 0, 1.5, 4.5, 13.5 and 40.5 nmol Tetrac/day/100 g or 0.5, 1.5, 4.5 and 13.5 nmol T4/day/100 g bodyweight (BW) (n=4/dose) were infused. An euthyroid control group was included. The animals were weighed every 2 days. Rats were sacrificed by decapitation and blood was collected and stored at […] until use. Tissues (liver, heart, brown adipose tissue, cerebral cortex and pituitary) were removed rapidly, frozen in liquid nitrogen and stored at […] until use.

[2] = Serum T3, T4, Triac and Tetrac levels in infused rats; assay type: in vivo; conditions: male, SIVZ, rat, intraperitoneal, mean ± SEM, read-out: Serum Tetrac
Protocol: as §1
Hornone assays. Total serum T4, T3, Tetrac, Triac and TSH levels (intra-assay coefficient of variation 7 to 10%, inter-assay coefficient of variation 12 to 15%) were measured using the method of Burger, A., Sakoloff, C., Staeheli, V., Vallotton, M. D., and Ingbar, S. H. Acta. Endocrinol. (Copenh.) 80: 58-69 (1975). Serum TSH measurements were performed with reagents kindly provided by the National Pituitary Program, NIAMDD, NIH (Bethesda, USA). The detection limits were 0.80 ng TSH/ml; 9.5 pmol T4/ml; 0.16 pmol T3/ml; 10 pmol Tetrac/ml and 0.52 pmol Triac/ml.

[3] = system: Monodeiodinase type 2; assay: Monodeiodinase type 2 activity in brain cortex and brown adipose tissue of infused rats; assay type: in vivo, rat; conditions: infused rats, remaining activity, adjusted group mean at the mean Ln (TSH) concentration
Protocol: as §1
Monodeiodinase type 1 and 2 activities. Monodeiodinase type 1 and type 2 activities were determined in tissue homogenates by measuring the release of radioiodide from [^125I]rT3 according to the method of Leonard and Rosenberg (Leonard, J. L. et al. Endocrinology (1980) 106: 444-451).
(§2) Monodeiodinase type 1 activity was measured in liver homogenates using 1 μM rT3 and 1 mM DTT with 10 min of incubation, whereas for heart, 0.01 μM rT3 and 10 mM DTT with 1 hour of incubation. Monodeiodinase type 2 activity was measured in brown adipose tissue (BAT) and cerebral cortex using 1 nM rT3, 10 mM DTT and 1 mM propylthiouracil (PTU) with 1 hour of incubation. Protein concentrations were measured by the method of Bradford (Bio-Rad Laboratories GmbH, Munich, Germany) with bovine gammaglobulin as the protein standard. In order to study the effect of circulating Tetrac on the enzyme activities, 2 rats were injected intraperitoneally with 10 μCi ^125I Tetrac and killed 6 hours later. The tissue homogenates were extracted with 3 volumes of ethanol-NH3 (97:3). After 10 minutes centrifugation at 15,000 g, the supernatant was vacuum dried and applied to TLC (Merck 254, Toluol, acetic acid, water: 2:2:1). In order to calculate the tissue concentrations, the highest serum Tetrac levels were used (406 pmol/ml). The calculated tissue concentrations were: liver: 1.9, heart: 2.29 and brain cortex: 0.47 fluol Tetrac/μg protein.

[4] = Tissue concentrations of Tetrac after 125I Tetrac injection; assay type: in vivo, rat; conditions: for Calculated tissue concentration of Tetrac: calculated with highest serum Tetrac level (406 pmol/ml)
Protocol: as §2

[5] = system: Cynomologus monkeys
Protocol: Preparation of Tetrac for injection. Tetrac from Rhône-Poulenc and Henning Laboratory were compared. Tetrac powder was dissolved in sterile 0.1 N NaOH at 2 mg/ml. This solution was made before the beginning of each treatment period and stored at 4° C. in polypropylene tubes, protected from light. Each solution for injection was prepared daily after dilution in the vehicle (0.9% NaCl) containing 5% monkey serum (v/v), and was stored at room temperature and protected from light, according to the storage conditions of the test substance.
Animals. One male and one female purpose bred Cynomologus monkeys Macaca fascicularis were supplied by Centre de Recherches Primatologiques, Port Louis, Mauritius. […] The animals were individually housed in stainless steel cages and a metallic tray was placed under each cage in order to collect urine. The animals were fed daily with approximately 200 grams each of U.A.R. 107 C pelleted diet (batch Nos. 61106, 61207 and 70317, U.A.R., Villemoisson-sur-Orge, France), distributed about 2 hours after treatment with Tetrac. No contaminants were known to have been present in the diet, drinking water or bedding material at levels which may be expected to have interfered with or prejudiced the outcome of the study.
Weeks 1 to 3 and weeks 7 to 9: the animals received the test substance TETRAC provided either by Rhone-Poulenc or by Henning Laboratories over a three-week period.
Weeks 4 to 6 and weeks 10 to 12: a washout period of three weeks was observed.
Administration of Tetrac. Tetrac was administered via intramuscular injection into the thigh muscle once a day, at approximately the same time each day, several days a week over a three week period. The quantity of tetrac administered to each animal was adjusted according to the most recently recorded body weight. A constant dosage-volume of 0.5 ml/kg was used.
Morbidity and mortality. The animals were checked at least twice a day, for mortality and signs of morbidity.
Body weight. Body weight was recorded for each animal once before the beginning of the treatment period, on the first day of the treatment period, and at least once a week until the end of the study.
Food consumption. Food consumption was estimated for each animal by calculating the difference between the quantity given and that remaining the next morning. This was estimated daily during the week before treatment and throughout the study. Food consumption was expressed as a percentage of the quantity given. Whenever fasting was required, the food was removed at the end of the day and the estimation of consumption was made at that time, food being made available for approximately five hours on that day.

## O=C(O)Cc1cc(I)c(Oc2cc(I)c(O)c(I)c2)c(I)c1 [Tetrac, 3,3′,5,5′-tetraiodothyroacetic acid]
[1]; compared with T4, p<0.01
  Increase of heart weight relative to body weight with increasing infusion rates (in words): less efficient
[1]; 1.5 nmol/day/100 g BW
  Heart: 0.76 ± 0.02 g
[1]; 4.5 nmol/day/100 g BW
  Heart: 0.83 ± 0.04 g
[1]; 13.5 nmol/day/100 g BW
  Heart: 0.94 ± 0.03 g
[1]; 40.5 nmol/day/100 g BW
  Heart: 0.98 ± 0.06 g
[1]; infusion 1.5 nmol/day/100 g BW
  Heart/BW (%): 0.31 ± 0.01%
[1]; infusion 4.5 nmol/day/100 g BW
  Heart/BW (%): 0.33 ± 0.02%
[1]; infusion 13.5 nmol/day/100 g BW
  Heart/BW (%): 0.36 ± 0.01%
[1]; infusion 40.5 nmol/day/100 g BW
  Heart/BW (%): 0.39 ± 0.02%
[2]; Tetrac infusion 1.5 nmol/day/100 g BW
  concentration at 13 days: 168 ± 16 nM
[2]; Tetrac infusion 4.5 nmol/day/100 g BW
  concentration at 13 days: 332 ± 19 nM
[2]; Tetrac infusion 13.5 nmol/day/100 g BW
  concentration at 13 days: 458 ± 27 nM
[2]; Tetrac infusion 40.5 nmol/day/100 g BW
  concentration at 13 days: 406 ± 57 nM
[3]; BAT
  Residual monodeiodinase type 2 activity, adjusted mean: 28
[3]; Brain Cortex
  Residual monodeiodinase type 2 activity, adjusted mean: 27.7
[4]; brain cortex homogenates
  Concentration of Tetrac in brain cortex homogenates: less than 1 fmol/μg protein
[4]; brain cortex
  Calculated tissue concentration of Tetrac: 0.47 fluol Tetrac/μg protein
[4]; heart
  Calculated tissue concentration of Tetrac: 2.29 fluol Tetrac/μg protein
[4]; liver
  Calculated tissue concentration of Tetrac: 1.9 fluol Tetrac/μg protein
[5]; 75 μg/kg/day intramuscular, treatment or washout periods
  Clinical signs: No clinical signs were observed
[5]; Female, two treatment periods compared to washout periods
  Body weight gain (in words): slightly higher body weight gain
[5]; Male
  Food consumption (in words): unaffected
